Source: patent publication US10953011B2, “Methods of treating virally associated cancers with histone deacetylase inhibitors” (priority 2019, dated 2021)
pIC50: −log10 of the molar value.

Columns and labels:
[1] = target: T1, HDAC8 (Homo sapiens, UniProt Q9BY41); test: biochemical
T1 sequence (Q9BY41 1-377): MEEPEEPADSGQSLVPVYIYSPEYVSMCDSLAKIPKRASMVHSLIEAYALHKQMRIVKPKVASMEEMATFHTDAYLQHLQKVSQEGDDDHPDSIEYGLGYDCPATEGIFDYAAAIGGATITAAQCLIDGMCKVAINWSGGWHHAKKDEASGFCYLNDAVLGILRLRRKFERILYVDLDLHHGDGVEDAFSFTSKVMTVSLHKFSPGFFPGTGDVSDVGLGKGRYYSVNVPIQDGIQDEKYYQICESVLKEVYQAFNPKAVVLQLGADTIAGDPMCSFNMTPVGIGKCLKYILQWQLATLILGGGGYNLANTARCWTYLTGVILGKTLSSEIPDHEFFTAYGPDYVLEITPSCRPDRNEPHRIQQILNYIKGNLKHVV
Description: Briefly, all of the compounds are dissolved in DMSO. A series of dilutions of the compounds were prepared with 10% DMSO in HDAC assay buffer and 5 μl of the dilution was added to a 50 μl reaction so that the final concentration of DMSO is 1% in all of reactions. The compounds were pre-incubated in duplicate at RT for 1 hour in a mixture containing HDAC assay buffer, 5 μg BSA, HDAC enzyme (see Table 7) and a the particular HDACi. After 1 hour, the enzymatic reactions were initiated by the addition of HDAC substrate (BPS Bioscience) to a final concentration of 10 μM or 2 μM. The enzymatic reaction proceeded for 30 minutes at 37° C.
HDAC activity assays were performed in duplicates at each concentration. The fluorescent intensity data were analyzed using the computer software, Graphpad Prism. In the absence of the compound, the fluorescent intensity (Ft) in each data set was defined as 100% activity. In the absence of HDAC, the fluorescent intensity (Fb) in each data set was defined as 0% activity. The percent activity in the presence of each compound was calculated according to the following equation: % activity=(F−Fb)/(Ft−Fb), where F=the fluorescent intensity in the presence of the compound. […]

[2] = test system: HDAC 1-3; details: descriptive statement; cited from earlier work

In the case of `O=C(NO)c1cnc(N2C[C@@H]3[C@H](C2)[C@H]3NCc2ccc3cc(F)ccc3n2)nc1` [Nanatinostat, 2-((1R,5S,6s)-6-(((6-fluoroquinolin-2-yl)methyl)amino)-3-azabicyclo[3.1.0]hexan-3-yl)-N-hydroxypyrimidine-5-carboxamide], the pIC50 [1] is listed as 6.07 and the “Activity against HDAC 1-3” value [2] is listed as “active against HDAC 1-3”.
